System: Culex pipiens
Assay: Efficacy test against Culex pipiens
Format: in vivo
Conditions: 2 ppm; first-instar larvae; after 1 day
Procedure: (§1) 5 parts of the compound of the present invention, 93.6 parts of dimethylformamide, and 1.4 parts of polyoxyethylene alkylaryl ether were mixed and dissolved to prepare an emulsion (I) of 5% of the active ingredient.
(§2) The insect mortality rate and the control rate were calculated by the following formula. Insect mortality rate (%)=(number of dead insects/number of sample insects)×100 Prevention rate=[1−(Nt)/(Nc)]×100
Emulsion (I) was diluted with water so that the concentration of the compound of the present invention reaches 2 ppm to prepare a chemical solution for test. 20 first-instar larvae of Culex pipiens were released into 100 ml of the chemical solution for test, then the number of dead insects was calculated after 1 day was passed, and the insect mortality rate was calculated by the formula. The test was repeated twice.

SMILES | insect mortality rate
CCS(=O)(=O)c1cc(C(F)(F)F)ccc1-n1cc(-c2ccc(OC(F)(F)F)cc2)cn1 [Compound 1-14] | 100%
CCS(=O)(=O)c1cc(C(F)(F)F)ccc1-n1ncc(-c2ccc(OC(F)(F)F)cc2)c1C [Compound 1-19] | 100%
CCS(=O)(=O)c1cc(C(F)(F)F)ccc1-n1ncc(-c2ccc(C(F)(F)F)nc2)c1C [Compound 1-24] | 100%

System: Pseudaletia separata
Assay: Efficacy test against Pseudaletia separata (artificial diet)
Format: in vivo
Conditions: 1 μl emulsion (I) (5% active ingredient) mixed in 0.8 g artificial diet; second-instar larvae; 25° C.; fifth day
Procedure: as §1, §2
0.8 g of commercially available artificial diet (Insecta US, manufactured by Nosan Corporation) and 1 μl of emulsion (1) were well mixed and 0.2 g of the resulting mixture was packed in a plastic test container (1.4 ml) per each treatment group to prepare test feeds.
2 second-instar larvae of Pseudaletia separata were inoculated into each treatment group and sealed with a plastic lid. The plastic test containers were placed in a thermostatic chamber with a temperature of 25° C., and the insect mortality rate and the food intake amount were investigated on the fifth day. The test was repeated twice.
Further, a test under the same conditions except that the compound of the present invention was removed from emulsion (I) was conducted as a solvent control group.

SMILES | food intake amount in ratio to the solvent control group
CCS(=O)(=O)c1cccnc1-n1ncc(-c2ccc(OC(F)(F)F)cc2)c1N [Compound 2-10] | ≤ 10%

Same assay, conditions: in vivo

SMILES | insect mortality rate
CCSc1cc(C(F)(F)F)ccc1-n1cc(-c2ccc(C(F)(F)F)cc2)cn1 [Compound 1-1] | 100%
CCS(=O)(=O)c1cc(C(F)(F)F)ccc1-n1cc(-c2ccc(C(F)(F)F)cc2)cn1 [Compound 1-2] | 100%
CCSc1cc(C(F)(F)F)ccc1-n1ncc(-c2ccc(C(F)(F)F)cc2)c1N [Compound 1-4] | 100%
CCS(=O)(=O)c1cc(C(F)(F)F)ccc1-n1ncc(-c2ccc(C(F)(F)F)cc2)c1N [Compound 1-5] | 100%
CC[S+]([O-])c1cc(C(F)(F)F)ccc1-n1ncc(-c2ccc(C(F)(F)F)cc2)c1C (stereo not shown) [Compound 1-9] | 100%
CCS(=O)(=O)c1cc(C(F)(F)F)ccc1-n1cc(-c2ccc(OC(F)(F)F)cc2)cn1 [Compound 1-14] | 100%
CCS(=O)(=O)c1cc(C(F)(F)F)ccc1-n1cc(-c2ccc(C(F)(F)F)nc2)cn1 [Compound 1-15] | 100%
CCS(=O)(=O)c1cc(C(F)(F)F)ccc1-n1cc(-c2ccc(C(F)(F)F)cc2F)cn1 [Compound 1-16] | 100%
CCS(=O)(=O)c1cc(C(F)(F)F)ccc1-n1ncc(-c2ccc(OC(F)(F)F)cc2)c1C [Compound 1-19] | 100%
CCS(=O)(=O)c1cc(C(F)(F)F)ccc1-n1ncc(-c2ccc(OC(F)(F)F)cc2)c1Br [Compound 1-20] | 100%
CCS(=O)(=O)c1cc(C(F)(F)F)ccc1-n1cc(-c2ccc(C(F)(F)C(F)(F)F)cc2)cn1 [Compound 1-22] | 100%
CCS(=O)(=O)c1cc(C(F)(F)F)ccc1-n1ncc(-c2ccc(OC(F)(F)F)cc2)c1F [Compound 1-23] | 100%
CCS(=O)(=O)c1cc(C(F)(F)F)ccc1-n1ncc(-c2ccc(C(F)(F)F)nc2)c1C [Compound 1-24] | 100%
CCS(=O)(=O)c1cc(C(F)(F)F)ccc1-n1ncc(-c2ccc(C(F)(F)F)nc2)c1N [Compound 1-25] | 100%
CCS(=O)(=O)c1cc(C(F)(F)F)ccc1-n1ncc(-c2cc(C(F)(F)F)cc(C(F)(F)F)c2)c1C [Compound 1-26] | 100%
CCS(=O)(=O)c1cc(C(F)(F)F)ccc1-n1cc(-c2cc(C(F)(F)F)cc(C(F)(F)F)c2)cn1 [Compound 1-27] | 100%
CCS(=O)(=O)c1cc(C(F)(F)F)ccc1-n1ncc(-c2cc(C(F)(F)F)cc(C(F)(F)F)c2)c1N [Compound 1-28] | 100%
CCS(=O)(=O)c1cc(C(F)(F)F)ccc1-n1ncc(-c2cc(C(F)(F)F)cc(C(F)(F)F)c2)c1I [Compound 1-30] | 100%
CCS(=O)(=O)c1cc(C(F)(F)F)ccc1-n1ncc(-c2ccc(C(F)(F)C(F)(F)F)cc2)c1N [Compound 1-31] | 100%
CCS(=O)(=O)c1cc(C(F)(F)F)ccc1-n1ncc(-c2ccc(SC(F)(F)F)cc2)c1N [Compound 1-32] | 100%
CCS(=O)(=O)c1cc(C(F)(F)F)ccc1-n1ncc(-c2cccc(OC(F)(F)F)c2)c1N [Compound 1-34] | 100%

SMILES | insect mortality rate
CCS(=O)(=O)c1cc(C(F)(F)F)ccc1-n1ncc(-c2ccc(C(F)(C(F)(F)F)C(F)(F)F)cc2)c1N [Compound 1-35] | 100%
CCS(=O)(=O)c1cc(C(F)(F)F)ccc1-n1ncc(-c2ccc(C(F)(F)F)c(Cl)c2)c1N [Compound 1-36] | 100%
CCS(=O)(=O)c1cc(C(F)(F)F)ccc1-n1ncc(-c2ccc(OC(F)(F)F)c(Cl)c2)c1N [Compound 1-38] | 100%
CCS(=O)(=O)c1cc(C(F)(F)F)ccc1-n1ncc(-c2ccc(C(F)(F)C(F)(F)F)nc2)c1C [Compound 1-47] | 100%
CCS(=O)(=O)c1cc(C(F)(F)F)ccc1-n1cc(-n2cc(C(F)(F)F)cn2)cn1 [Compound 1-50] | 100%
CCS(=O)(=O)c1cc(C(F)(F)F)ccc1-n1cc(-n2cc(C(F)(F)C(F)(F)F)cn2)cn1 [Compound 1-51] | 100%
CCS(=O)(=O)c1cc(C(F)(F)F)ccc1-n1ncc(-c2ccc(C(F)(F)C(F)(F)F)nc2)c1C#N [Compound 1-52] | 100%
CCS(=O)(=O)c1cc(C(F)(F)F)cnc1-n1ncc(-c2ccc(OC(F)(F)F)cc2)c1N [Compound 2-4] | 100%
CCS(=O)(=O)c1cc(C(F)(F)F)cnc1-n1ncc(-c2ccc(C(F)(F)F)nc2)c1C [Compound 2-5] | 100%
CCS(=O)(=O)c1cc(C(F)(F)F)cnc1-n1cc(-c2ccc(OC(F)(F)F)cc2)cn1 [Compound 2-6] | 100%
CCS(=O)(=O)c1cc(C(F)(F)F)cnc1-n1ncc(-c2ccc(OC(F)(F)F)cc2)c1C [Compound 2-7] | 100%
CCS(=O)(=O)c1cccnc1-n1ncc(-c2ccc(OC(F)(F)F)cc2)c1C [Compound 2-8] | 100%
CCS(=O)(=O)c1cccnc1-n1ncc(-c2ccc(C(F)(F)C(F)(F)F)cc2)c1C [Compound 2-9] | 100%
CCS(=O)(=O)c1cccnc1-n1ncc(-c2ccc(OC(F)(F)F)cc2)c1N [Compound 2-10] | 100%
CCS(=O)(=O)c1cccnc1-n1ncc(-c2ccc(C(F)(F)C(F)(F)F)cc2)c1N [Compound 2-11] | 100%
CCS(=O)(=O)c1cccnc1-n1ncc(-c2ccc(SC(F)(F)F)cc2)c1N [Compound 2-12] | 100%
CCS(=O)(=O)c1cccnc1-n1ncc(-c2ccc(C(F)(F)C(F)(F)F)nc2)c1C [Compound 2-16] | 100%
CCS(=O)(=O)c1cc(C(F)(F)F)ccc1-c1cnn(-c2ccc(C(F)(F)F)cc2)c1Br [Compound 3-3] | 100%
CCSc1cc(C(F)(F)F)ccc1-c1cn(-c2ccc(OC(F)(F)F)cc2)nn1 [Compound 5-1] | 100%
CCS(=O)(=O)c1cc(C(F)(F)F)ccc1-c1cn(-c2ccc(OC(F)(F)F)cc2)nn1 [Compound 5-2] | 100%

System: not given
Assay: not given
Conditions: not given

melting point | SMILES
79 to 80 °C | CCSc1cc(C(F)(F)F)ccc1-n1nnc(-c2ccc(C(F)(F)F)cc2)c1C [Compound 4-5, 1-(2-(Ethylthio)-4-(trifluoromethyl)phenyl)-5-methyl-4-(4-(trifluoromethyl)phenyl)-1H-1,2,3-triazole]
154 to 156 °C | CCS(=O)(=O)c1cc(C(F)(F)F)ccc1-n1nnc(-c2ccc(C(F)(F)F)cc2)c1C [Compound 4-6, 1-(2-(Ethylsulfonyl)-4-(trifluoromethyl)phenyl)-5-methyl-4-(4-(trifluoromethyl)phenyl)-1H-1,2,3-triazole]
110 to 111 °C | CCSc1cc(C(F)(F)F)ccc1-n1cc(-c2ccc(OC(F)(F)F)cc2)nn1 [Compound 4-7, 1-(2-(Ethylthio)-4-(trifluoromethyl)phenyl)-4-(4-(trifluoromethoxy)phenyl)-1H-1,2,3-triazole]
178 to 179 °C | CCS(=O)(=O)c1cc(C(F)(F)F)ccc1-n1cc(-c2ccc(OC(F)(F)F)cc2)nn1 [Compound 4-8, 1-(2-(Ethylsulfonyl)-4-(trifluoromethyl)phenyl)-4-(4-(trifluoromethoxy)phenyl)-1H-1,2,3-triazole]

Source: patent publication US10548316B2, “Diarylazole compound and harmful organism control agent” (Nippon Soda Co., Ltd., priority 2015, dated 2020)
